Results: ChEMBL document CHEMBL1139181, “Design and synthesis of novel heterobiaryl amides as metabotropic glutamate receptor subtype 5 antagonists” (Bioorg Med Chem Lett, 2007)

Biological target: Metabotropic glutamate receptor 5 (Rattus norvegicus) (UniProt P31424)
Test: Displacement of [3H]MPEP from mGluR5 in rat brain membrane at 10 uM
Assay type: cell membranes

Sequence of Metabotropic glutamate receptor 5 (Rattus norvegicus) (P31424 21-1203 limits assumed): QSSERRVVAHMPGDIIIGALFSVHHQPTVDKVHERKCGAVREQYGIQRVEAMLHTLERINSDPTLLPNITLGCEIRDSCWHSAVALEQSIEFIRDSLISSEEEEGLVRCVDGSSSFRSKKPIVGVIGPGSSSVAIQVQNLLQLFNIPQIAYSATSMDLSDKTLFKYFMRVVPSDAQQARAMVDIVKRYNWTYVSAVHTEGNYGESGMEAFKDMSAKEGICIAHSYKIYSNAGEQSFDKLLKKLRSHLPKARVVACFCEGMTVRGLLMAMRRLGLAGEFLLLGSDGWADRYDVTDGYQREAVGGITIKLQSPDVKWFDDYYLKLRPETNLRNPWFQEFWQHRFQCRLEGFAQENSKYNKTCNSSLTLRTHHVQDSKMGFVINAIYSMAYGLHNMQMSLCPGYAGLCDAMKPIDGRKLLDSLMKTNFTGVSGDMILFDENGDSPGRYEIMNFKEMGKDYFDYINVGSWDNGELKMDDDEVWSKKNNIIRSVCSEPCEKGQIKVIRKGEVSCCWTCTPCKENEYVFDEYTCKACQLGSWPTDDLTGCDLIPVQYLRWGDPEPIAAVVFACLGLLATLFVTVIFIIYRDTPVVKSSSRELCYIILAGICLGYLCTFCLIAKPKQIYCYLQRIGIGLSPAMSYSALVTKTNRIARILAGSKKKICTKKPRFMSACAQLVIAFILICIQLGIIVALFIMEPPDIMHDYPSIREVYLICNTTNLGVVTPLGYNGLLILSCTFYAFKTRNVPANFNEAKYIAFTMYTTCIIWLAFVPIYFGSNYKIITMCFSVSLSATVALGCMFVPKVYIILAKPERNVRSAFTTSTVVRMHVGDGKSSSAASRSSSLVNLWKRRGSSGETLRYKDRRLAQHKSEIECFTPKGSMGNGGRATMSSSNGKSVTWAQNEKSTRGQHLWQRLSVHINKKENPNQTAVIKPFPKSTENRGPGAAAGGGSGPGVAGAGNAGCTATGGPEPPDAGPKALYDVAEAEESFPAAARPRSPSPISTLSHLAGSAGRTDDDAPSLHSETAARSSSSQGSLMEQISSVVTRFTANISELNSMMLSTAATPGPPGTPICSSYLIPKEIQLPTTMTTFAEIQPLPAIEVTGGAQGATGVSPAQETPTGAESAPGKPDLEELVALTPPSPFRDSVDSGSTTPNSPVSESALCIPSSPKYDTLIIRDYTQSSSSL

SMILES	Activity
Cc1cccc(NC(=O)c2cc(Cl)ccn2)n1	28%
Cc1cccc(NC(=O)c2ccc(-c3cccc(C#N)c3)cn2)n1	7.4%
Cc1cccc(NC(=O)c2cc(-c3cccs3)ccn2)n1	< 1%
COc1cccc(-c2ccnc(C(=O)Nc3cccc(C)n3)c2)c1	13%
Cc1cccc(NC(=O)c2ccc(-c3cccs3)cn2)n1	40%

The next lines start with the values.

Activity	SMILES
40%	Cc1cccc(NC(=O)c2cc3ccccc3o2)n1
32%	Cc1cccc(NC(=O)c2cc(-c3ccc4ccccc4c3)ccn2)n1
11%	Cc1cccc(NC(=O)c2cc3ccccc3s2)n1
< 1%	Cc1cccc(NC(=O)c2cc3ccccc3[nH]2)n1
< 1%	Cc1cccc(NC(=O)c2csc(-c3ccccc3)n2)n1
8%	Cc1cccc(NC(=O)c2cc3ccccc3n2C)n1
91%	COc1ccccc1-c1ccnc(C(=O)Nc2cccc(C)n2)c1

Biological target: Metabotropic glutamate receptor 5 (Homo sapiens, UniProt P41594)
Sequence (P41594 whole entry): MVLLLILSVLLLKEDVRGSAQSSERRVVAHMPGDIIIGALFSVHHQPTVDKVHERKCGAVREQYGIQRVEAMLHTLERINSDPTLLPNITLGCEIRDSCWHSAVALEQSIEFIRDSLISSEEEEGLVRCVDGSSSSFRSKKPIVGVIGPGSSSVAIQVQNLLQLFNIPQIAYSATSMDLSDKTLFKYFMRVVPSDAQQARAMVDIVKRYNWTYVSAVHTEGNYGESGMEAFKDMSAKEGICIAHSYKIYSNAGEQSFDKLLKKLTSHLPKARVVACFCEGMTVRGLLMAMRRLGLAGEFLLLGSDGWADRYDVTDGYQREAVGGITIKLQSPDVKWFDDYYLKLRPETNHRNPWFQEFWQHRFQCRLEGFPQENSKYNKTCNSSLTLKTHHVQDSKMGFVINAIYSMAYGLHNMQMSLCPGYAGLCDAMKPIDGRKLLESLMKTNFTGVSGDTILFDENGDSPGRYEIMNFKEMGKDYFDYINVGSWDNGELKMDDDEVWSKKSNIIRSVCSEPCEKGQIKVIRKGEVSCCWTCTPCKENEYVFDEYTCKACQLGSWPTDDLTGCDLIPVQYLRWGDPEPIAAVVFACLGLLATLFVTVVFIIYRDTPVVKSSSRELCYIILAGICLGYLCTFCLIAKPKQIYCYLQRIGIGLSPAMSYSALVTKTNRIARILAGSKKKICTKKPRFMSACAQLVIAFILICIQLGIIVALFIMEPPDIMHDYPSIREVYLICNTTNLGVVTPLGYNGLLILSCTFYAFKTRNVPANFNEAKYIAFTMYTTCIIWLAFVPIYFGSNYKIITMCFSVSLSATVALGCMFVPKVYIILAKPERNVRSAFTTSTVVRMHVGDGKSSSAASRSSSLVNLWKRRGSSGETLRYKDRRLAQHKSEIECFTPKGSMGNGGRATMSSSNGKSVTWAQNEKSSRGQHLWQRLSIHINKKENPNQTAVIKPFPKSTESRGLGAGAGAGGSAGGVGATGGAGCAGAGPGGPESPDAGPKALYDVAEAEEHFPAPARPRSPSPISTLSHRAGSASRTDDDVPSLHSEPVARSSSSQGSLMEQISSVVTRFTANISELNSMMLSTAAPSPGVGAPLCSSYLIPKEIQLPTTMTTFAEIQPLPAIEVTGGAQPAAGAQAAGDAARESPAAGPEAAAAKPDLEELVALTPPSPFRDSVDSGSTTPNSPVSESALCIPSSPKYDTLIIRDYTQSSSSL
Test: Antagonist activity at mGluR5 expressed in CHO cells assessed as phosphoinositide hydrolysis
Assay type: functional, cell-based

IC50	SMILES
160 nM	Cc1cccc(NC(=O)c2cc(-c3cc(F)cc(F)c3)ccn2)n1
7300 nM	Cc1cccc(NC(=O)c2cc(-c3cccc(C#N)c3)ccn2)n1
12400 nM	Cc1cccc(NC(=O)c2ccc(-c3ccccn3)cn2)n1

Biological target: Metabotropic glutamate receptor 5 (Rattus norvegicus, UniProt P31424)
Sequence (P31424 whole entry): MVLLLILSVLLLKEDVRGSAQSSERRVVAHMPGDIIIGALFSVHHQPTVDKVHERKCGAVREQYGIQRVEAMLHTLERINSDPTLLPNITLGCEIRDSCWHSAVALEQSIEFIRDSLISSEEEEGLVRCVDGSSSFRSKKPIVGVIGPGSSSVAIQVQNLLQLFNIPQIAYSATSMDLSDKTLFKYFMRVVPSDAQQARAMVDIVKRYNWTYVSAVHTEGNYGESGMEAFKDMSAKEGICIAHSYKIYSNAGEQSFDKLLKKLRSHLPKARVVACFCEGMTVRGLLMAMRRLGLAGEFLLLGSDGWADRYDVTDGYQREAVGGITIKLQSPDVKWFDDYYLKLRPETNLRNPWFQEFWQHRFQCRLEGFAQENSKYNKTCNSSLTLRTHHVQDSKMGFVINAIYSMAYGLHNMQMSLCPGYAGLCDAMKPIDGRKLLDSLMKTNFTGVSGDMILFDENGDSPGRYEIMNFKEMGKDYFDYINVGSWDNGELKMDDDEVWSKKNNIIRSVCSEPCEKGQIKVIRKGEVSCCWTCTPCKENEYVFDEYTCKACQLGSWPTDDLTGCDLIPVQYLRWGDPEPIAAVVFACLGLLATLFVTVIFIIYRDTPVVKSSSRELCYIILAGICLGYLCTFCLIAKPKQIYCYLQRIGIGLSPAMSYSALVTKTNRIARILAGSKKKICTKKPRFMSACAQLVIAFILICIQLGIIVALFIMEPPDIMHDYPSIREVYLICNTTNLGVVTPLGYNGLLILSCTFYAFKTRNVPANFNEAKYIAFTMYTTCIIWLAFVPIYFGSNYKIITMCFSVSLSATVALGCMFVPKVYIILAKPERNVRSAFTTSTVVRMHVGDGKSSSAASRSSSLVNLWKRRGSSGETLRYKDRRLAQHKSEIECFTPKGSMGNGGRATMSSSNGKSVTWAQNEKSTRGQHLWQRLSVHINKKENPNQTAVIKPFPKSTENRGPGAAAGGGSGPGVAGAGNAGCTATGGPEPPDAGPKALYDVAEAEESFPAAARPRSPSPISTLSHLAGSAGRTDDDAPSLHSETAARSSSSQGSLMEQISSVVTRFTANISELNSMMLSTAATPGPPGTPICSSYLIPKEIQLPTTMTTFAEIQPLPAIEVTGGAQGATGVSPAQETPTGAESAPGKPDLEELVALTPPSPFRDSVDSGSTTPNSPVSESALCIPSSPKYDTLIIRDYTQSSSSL
Test: Displacement of [3H]MPEP from mGluR5 in rat brain membrane
Assay type: cell membranes

SMILES	Ki
Cc1cccc(NC(=O)c2cccn2C)n1	> 10000 nM
Cc1cccc(NC(=O)c2cc(-c3cccc(F)c3)ccn2)n1	500 nM
Cc1cccc(NC(=O)c2cc(-c3cc(F)cc(F)c3)ccn2)n1	43 nM
Cc1cccc(NC(=O)c2nccn2C)n1	3070 nM
Cc1cccc(NC(=O)c2cc(-c3cccc(C#N)c3)ccn2)n1	320 nM
COc1ccccc1-c1ccc(C(=O)Nc2cccc(C)n2)nc1	560 nM
Cc1cccc(NC(=O)c2cc(-c3ncccn3)ccn2)n1	2480 nM

Now from value to molecule:

Ki	SMILES
2800 nM	Cc1cccc(NC(=O)c2ccc(-c3ccccc3)cn2)n1
440 nM	Cc1cccc(NC(=O)c2nccc3ccccc23)n1
250 nM	Cc1cccc(NC(=O)c2cc(-c3cccc4ccccc34)ccn2)n1
100 nM	Cc1cccc(NC(=O)c2ccc(-c3ccccn3)cn2)n1
